“And” between values parts separate entries of the source, which are not always exact repeats. Equal values may be shown once. Inconclusive results and toxic doses are left out. The calls were made as follows: active = survival T/C of 150% or more; inactive = T/C below 125% in these data. Peptide text beside a SMILES is read from it. * marks the point of attachment. Cbz = O=C(OCc1ccccc1)*; OtBu = CC(C)(C)O*
System: P388 leukemia ip, CD2F1 mice, survival T/C
Assay: NCI In Vivo Anticancer Drug Screen. Data for tumor model P388 Leukemia (intraperitoneal) in CD2F1 (CDF1) mice
Conditions: endpoint: median survival time, higher = longer survival
How it was run: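 Mice carrying the transplanted tumor received test compound or vehicle. Survival was recorded in each group, and the value is the treated-group measurement divided by that of the vehicle-treated control group.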

[1] = dose: 50.0 mg/kg/injection, schedule: Q01DX005 (ip), vehicle: Klucel (hydroxypropylcellulose) (HPC)
[2] = dose: 50.0 mg/kg/injection, schedule: Q01DX005 (ip), vehicle: saline with Tween-80
[3] = dose: 100.0 mg/kg/injection, schedule: Q01DX005 (ip), vehicle: Klucel (hydroxypropylcellulose) (HPC)
[4] = dose: 100.0 mg/kg/injection, schedule: Q01DX005 (ip), vehicle: saline with Tween-80
[5] = dose: 100.0 mg/kg/injection, schedule: Q01DX001 (ip), vehicle: saline with Tween-80
[6] = dose: 400.0 mg/kg/injection, schedule: Q01DX001 (ip), vehicle: saline with Tween-80
[7] = dose: 50.0 mg/kg/injection, schedule: Q01DX009 (ip), vehicle: saline with Tween-80
[8] = dose: 50.0 mg/kg/injection, schedule: Q01DX009 (ip), vehicle: saline
[9] = dose: 100.0 mg/kg/injection, schedule: Q01DX009 (ip), vehicle: saline
[10] = dose: 200.0 mg/kg/injection, schedule: Q01DX009 (ip), vehicle: saline
[11] = dose: 100.0 mg/kg/injection, schedule: Q01DX009 (ip), vehicle: saline with Tween-80
[12] = dose: 200.0 mg/kg/injection, schedule: Q01DX009 (ip), vehicle: saline with Tween-80

Measured: T/C

COc1cc2c(c3c1c(=O)c1ccccc1n3C)C=CC(C)(C)O2
inactive: dose: 7.5 mg/kg/injection, schedule: Q01DX009 (ip), vehicle: saline with Tween-80 99 % of control | dose: 12.5 mg/kg/injection, schedule: Q01DX005 (ip), vehicle: saline with Tween-80 92 % of control | dose: 15.0 mg/kg/injection, schedule: Q01DX009 (ip), vehicle: saline with Tween-80 98 % of control | dose: 25.0 mg/kg/injection, schedule: Q01DX005 (ip), vehicle: Klucel (hydroxypropylcellulose) (HPC) 97 % of control | dose: 25.0 mg/kg/injection, schedule: Q01DX005 (ip), vehicle: saline with Tween-80 92 % of control | dose: 30.0 mg/kg/injection, schedule: Q01DX009 (ip), vehicle: saline with Tween-80 103 % of control | [1] 112 % of control | [2] 112 % of control | [3] 118 % of control | [4] 113 % of control

CC1(OC(=O)c2ccc(Cl)cc2)CC(C)(C)[N+]([O-])=N1 (centres undefined)
inactive: dose: 12.5 mg/kg/injection, schedule: Q01DX009 (ip), vehicle: other 103 % of control | dose: 25.0 mg/kg/injection, schedule: Q01DX009 (ip), vehicle: other 99 % of control | dose: 50.0 mg/kg/injection, schedule: Q01DX009 (ip), vehicle: other 99 % of control | dose: 100.0 mg/kg/injection, schedule: Q01DX009 (ip), vehicle: other 96 % of control | dose: 200.0 mg/kg/injection, schedule: Q01DX009 (ip), vehicle: other 99 % of control

CS(C)(=O)=Nc1ccc(F)cc1
inactive: [5] 99 % of control | dose: 200.0 mg/kg/injection, schedule: Q01DX001 (ip), vehicle: saline with Tween-80 99 % of control | [6] 99 % of control

CC(C)(Oc1ccc(-c2cccc3ccccc23)cc1)C(=O)O
inactive: dose: 6.25 mg/kg/injection, schedule: Q01DX009 (ip), vehicle: Klucel (hydroxypropylcellulose) (HPC) 97 % of control | dose: 12.5 mg/kg/injection, schedule: Q01DX009 (ip), vehicle: Klucel (hydroxypropylcellulose) (HPC) 95 % of control | dose: 25.0 mg/kg/injection, schedule: Q01DX009 (ip), vehicle: Klucel (hydroxypropylcellulose) (HPC) 101 % of control | dose: 100.0 mg/kg/injection, schedule: Q01DX009 (ip), vehicle: Klucel (hydroxypropylcellulose) (HPC) 111 % of control | dose: 200.0 mg/kg/injection, schedule: Q01DX009 (ip), vehicle: Klucel (hydroxypropylcellulose) (HPC) 119 % of control

Nc1ccc(Br)cc1C(=O)c1ccccc1
inactive: dose: 12.5 mg/kg/injection, schedule: Q01DX009 (ip), vehicle: saline with Tween-80 97 % of control | dose: 25.0 mg/kg/injection, schedule: Q01DX009 (ip), vehicle: saline with Tween-80 94 % of control | [7] 94 % of control | [8] 87 % of control | [9] 89 % of control | [10] 116 % of control

CC(C)CC(NC(=O)C(Cc1ccccc1)NC(=O)C1CCCN1C(=O)OCc1ccccc1)C(=O)OC(C)(C)C (stereo not drawn) (Cbz-Pro-Phe-Leu-OtBu; configuration not given here)
inactive: [2] 100 % of control | [4] 100 % of control | dose: 200.0 mg/kg/injection, schedule: Q01DX005 (ip), vehicle: saline with Tween-80 91 % of control

CC1CC[N-]C(N)N1.CC1CC[N-]C(N)N1.[Cl][Pd][Cl] (centres undefined)
inactive: dose: 60.0 mg/kg/injection, schedule: Q01DX005 (ip), vehicle: Klucel (hydroxypropylcellulose) (HPC) 97 % of control | dose: 120.0 mg/kg/injection, schedule: Q01DX005 (ip), vehicle: Klucel (hydroxypropylcellulose) (HPC) 97 % of control | dose: 240.0 mg/kg/injection, schedule: Q01DX005 (ip), vehicle: Klucel (hydroxypropylcellulose) (HPC) 90 % of control

Cc1cc(C)n(C2=NCCN2)n1
inactive: dose: 60.0 mg/kg/injection, schedule: Q01DX005 (ip), vehicle: saline 99 % of control | dose: 120.0 mg/kg/injection, schedule: Q01DX005 (ip), vehicle: saline 96 % of control

COc1ccc(-c2cc(-c3ccccc3)[nH]c2-c2ccccc2)cc1
inactive: dose: 100.0 mg/kg/injection, schedule: Q04DX002 (ip), vehicle: saline 98 % of control | dose: 200.0 mg/kg/injection, schedule: Q04DX002 (ip), vehicle: saline 105 % of control | dose: 400.0 mg/kg/injection, schedule: Q04DX002 (ip), vehicle: saline 100 % of control

CN1c2ccccc2S(=O)(=O)n2c(-c3ccccc3Cl)nnc21
inactive: dose: 25.0 mg/kg/injection, schedule: Q01DX001 (ip), vehicle: saline with Tween-80 97 % of control | dose: 50.0 mg/kg/injection, schedule: Q01DX001 (ip), vehicle: saline with Tween-80 96 % of control | [5] 100 % of control and 95 % of control | [6] 90 % of control

Cc1ccc2[nH]c(=O)oc2c1
inactive: dose: 25.0 mg/kg/injection, schedule: Q04DX002 (ip), vehicle: saline with Tween-80 90 % of control | dose: 50.0 mg/kg/injection, schedule: Q04DX002 (ip), vehicle: saline with Tween-80 101 % of control

O=C1NC(=O)C(Cc2ccccc2)(Cc2ccccc2)C(=O)N1
inactive: [11] 90 % of control | dose: 100.0 mg/kg/injection, schedule: Q04DX003 (ip), vehicle: saline with Tween-80 110 % of control | [12] 95 % of control | dose: 200.0 mg/kg/injection, schedule: Q04DX003 (ip), vehicle: saline with Tween-80 100 % of control | dose: 400.0 mg/kg/injection, schedule: Q01DX009 (ip), vehicle: saline with Tween-80 95 % of control | dose: 400.0 mg/kg/injection, schedule: Q04DX003 (ip), vehicle: saline with Tween-80 110 % of control

CC(C)(C)c1cc2c(O)c(c1)Cc1cc(C(C)(C)C)cc(c1O)Cc1cc(C(C)(C)C)cc(c1O)Cc1cc(C(C)(C)C)cc(c1O)Cc1cc(C(C)(C)C)cc(c1O)Cc1cc(C(C)(C)C)cc(c1O)Cc1cc(C(C)(C)C)cc(c1O)Cc1cc(C(C)(C)C)cc(c1O)C2
inactive: [1] 101 % of control | [3] 90 % of control | dose: 200.0 mg/kg/injection, schedule: Q01DX005 (ip), vehicle: Klucel (hydroxypropylcellulose) (HPC) 99 % of control

COc1cc2c(cc1OC)[C@@H](CO)[C@H]1c3cc4c(cc3CCN1C2)OCO4
inactive: dose: 50.0 mg/kg/injection, schedule: Q04DX003 (ip), vehicle: distilled water + Tween-80 106 % of control and 115 % of control | dose: 100.0 mg/kg/injection, schedule: Q04DX003 (ip), vehicle: distilled water + Tween-80 100 % of control and 98 % of control | dose: 200.0 mg/kg/injection, schedule: Q04DX003 (ip), vehicle: distilled water + Tween-80 105 % of control and 120 % of control

O=[N+]([O-])c1cc([N+](=O)[O-])c2ccccc2c1NS(=O)(=O)c1ccc(Cl)c(Cl)c1Cl
inactive: [7] 103 % of control and 122 % of control | [11] 112 % of control | [12] 106 % of control

OCCN1CN(c2ccccc2)C(=S)N(c2ccccc2)C1
inactive: [7] 97 % of control | [11] 100 % of control | [12] 93 % of control

C1=CC2CCC1C1CSCC21 (centres undefined)
inactive: dose: 12.5 mg/kg/injection, schedule: Q01DX009 (ip), vehicle: saline 98 % of control | dose: 25.0 mg/kg/injection, schedule: Q01DX009 (ip), vehicle: saline 100 % of control | [8] 87 % of control and 92 % of control

CC(=O)Nc1nc2ncc(CN(C(C)=O)c3ccc(C4=NC(CCC(=O)O)C(=O)O4)cc3)nc2c(=O)[nH]1 (centres undefined)
inactive: dose: 50.0 mg/kg/injection, schedule: Q04DX003 (ip), vehicle: alkali diluted with saline 97 % of control | dose: 100.0 mg/kg/injection, schedule: Q04DX003 (ip), vehicle: alkali diluted with saline 95 % of control | dose: 200.0 mg/kg/injection, schedule: Q04DX003 (ip), vehicle: alkali diluted with saline 102 % of control

Nc1ncccc1OCc1ccccc1
inactive: [8] 100 % of control and 110 % of control | [9] 107 % of control and 116 % of control | [10] 113 % of control and 98 % of control | dose: 400.0 mg/kg/injection, schedule: Q01DX009 (ip), vehicle: saline 100 % of control and 95 % of control
